Results: patent US6825308B1, “Copolymers and preparation thereof” (Council of Scientific and Industrial Research, priority 2003, dated 2004)

Target: lysozyme (Gallus gallus, UniProt P00698)
Assay: Relative inhibition of lysozyme, Micrococcus lysodeikticus as substrate (Neuberger and Wilson)
Format: biochemical
Conditions: pH 6.2, 20° C.
Description: This example describes the estimation of inhibition of lysozyme by copolymers.
Micrococcus lysodeikticus is a substrate for the enzyme lysozyme. Relative binding of copolymers was estimated by using a procedure reported by Neuberger and Wilson (1967).
1.5% w/v stock solutions of copolymer was prepared in 0.0066 M phosphate buffer pH 6.2 containing 0.0154 m sodium chloride and 0.008 M sodium azide. One milliliter of stock solution containing different copolymer concentration was mixed with 1.6 ml of 78 μg/ml of Micrococcus lysodeikticus in a 3-ml capacity glass cuvette. The mixture was incubated for 5 minutes at 20° C. To this mixture 0.1 ml of lysozyme (27 μg/ml) was added and mixed thoroughly. The relative absorbance at 450 nm (Δ450) was recorded for 30 seconds. A blank reading without the copolymer was noted and the change in the absorbance per second was calculated. Then relative inhibition was calculated.

lysozyme, sequence (P00698 19-147): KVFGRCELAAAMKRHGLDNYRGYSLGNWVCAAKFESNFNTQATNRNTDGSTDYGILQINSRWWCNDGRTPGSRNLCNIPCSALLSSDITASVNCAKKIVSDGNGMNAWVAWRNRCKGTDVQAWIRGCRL

CC(=O)N[C@H]1C(O)O[C@H](CO)[C@@H](O)[C@@H]1O (some centres unmarked) [NAG, N-Acetyl Glucosamine]
Imax (concentration at Imax): 92.5 mM | Imax (maximum relative inhibition of lysozyme): 55.29
